Source: US20190083495A1, “Methods Of Preventing Or Reducing A Fibrotic Response Using CSF1R Inhibitors” (Massachusetts Institute of Technology, priority 2016, published 2019)
Entries after “also recorded” stand apart in the source; their conditions may differ.

Tests used:
CXCL10 = CXCL10 ELISA of protein lysates from retrieved alginate spheres and tissue; type: in vivo, C57BL/6 mice; conditions: lysates of alginate spheres and tissue retrieved at 14 days
[1] = system: reactive oxygen specie (ROS); assay: ROS activity assessment of protein lysates from retrieved alginate spheres; type: in vivo, C57BL/6 mice; conditions: lysates from alginate spheres 14 days after IP implantation, two ROS substrates, vs untreated and vehicle
C57BL/6 mice [2] = assay: In vivo wound healing of skin incisions
Text: For in vivo wound healing: C57BL/6 mice were anesthetized (same as above) and shaved, and skin incisions 1.5 cm in length were made along the midline. Each incision was then wound clipped shut for both vehicle and daily GW2580-treated C57BL/6 mice. Wound clips were removed and then replaced each imaging day up until day 7 (required to maintain them up until at least this time), after which clips were left off completely. Photos were acquired on days 0, 1, 4, 7, 10, and 14 post-incision. After 14 days, mice were sacrificed, and skin samples were prepared for histological assessment (H&E and Masson's Trichrome) of both vehicle and GW2580 treatment groups. Cross-sections through the incision line were generated to assess the level of in vivo healing following a 14-day treatment regimen. For IP innate immune cell counts, FACS, and phagocytosis assays: cells were isolated by peritoneal lavage with 8 mL DPBS, diluted into RPMI, and then subsequently counted, and aliquoted either for staining and FACS analysis (as described above), or for phagocytosis assays. Peritoneal exudate macrophages isolated by IP lavage from (n=5) mice in each treatment group were immediately plated (400,000 cells/well in a 24-well plate) and incubated with fluorospheres for 90 minutes to determine phagocytic activity. 1 μm orange fluorospheres (540/560) (Cat# F13082, Invitrogen, Carlsbad, Calif.) were added to each well in a volume of 500 μL from an initial dilution of 20 μL into 10 mL. After addition, plates were spun down at 1,000 rpm for 1 min, and then placed in an incubator for 90 minutes to allow IP macrophages time to phagocytose the 1 μm diameter fluorospheres. Following the 90-minute incubation, all wells were fixed with 4% paraformaldehyde and stored at 4 C prior to imaging using a fluorescent and brightfield-capable EVOS microscope (Advanced Microscopy Group). […] Following appropriate incubation times, samples were read in a black-wall 96-well plate with a Tecan fluorescent-capable Infinite M1000 plate reader.

[3] = system: Peritoneal exudate macrophages; assay: Phagocytosis assay with fluorospheres; type: cell-based, C57BL/6 mice; conditions: macrophages from treated mice, 90 minutes with fluorospheres, vs vehicle
Text: For in vivo wound healing: C57BL/6 mice were anesthetized (same as above) and shaved, and skin incisions 1.5 cm in length were made along the midline. Each incision was then wound clipped shut for both vehicle and daily GW2580-treated C57BL/6 mice. Wound clips were removed and then replaced each imaging day up until day 7 (required to maintain them up until at least this time), after which clips were left off completely. Photos were acquired on days 0, 1, 4, 7, 10, and 14 post-incision. After 14 days, mice were sacrificed, and skin samples were prepared for histological assessment (H&E and Masson's Trichrome) of both vehicle and GW2580 treatment groups. Cross-sections through the incision line were generated to assess the level of in vivo healing following a 14-day treatment regimen. For IP innate immune cell counts, FACS, and phagocytosis assays: cells were isolated by peritoneal lavage with 8 mL DPBS, diluted into RPMI, and then subsequently counted, and aliquoted either for staining and FACS analysis (as described above), or for phagocytosis assays. […] Following appropriate incubation times, samples were read in a black-wall 96-well plate with a Tecan fluorescent-capable Infinite M1000 plate reader.

C57BL/6 mice [4] = assay: Fibrosis of implanted material spheres retrieved after 14-day intraperitoneal implantation (phase contrast / brightfield imaging); type: in vivo
Text: All protocols were approved by the MIT Committee on Animal Care, and all surgical procedures and post-operative care were supervised by MIT Division of Comparative Medicine veterinary staff. All mice, wild type male immune-competent (non-diabetic), STZ-induced diabetic, as well as knockout C57BL/6 mice, were ordered pathogen-free from Jackson Laboratory (Bar Harbor, Me.) or Taconic (Hudson, N.Y.). The status of all mice was subsequently verified by testing sentinel animals, shown to be negative for at least 12 known mouse pathogens. Implanted mice were anesthetized with 3% isoflurane in oxygen and had their abdomens shaved and sterilized using betadine and isopropanol. C57BL/6-Nude (T KO, B6NU), C57BL/6-Rag2^null (T & B KO, RAGN12), C57BL/6-Rag2^null/Il2rγ^null (Rag2/γ, 4111) were ordered from Taconic (Hudson, N.Y.), and C57BL/6-IghM^null (BKO, 002288), (C57BL/6) B6.12956-Ccr6tm1(EGFP)Irw/J. (Ccr6, 013061), and C57BL/6-C3 KO (C3 KO, 003641) mice were ordered from Jackson Laboratory, Bar Harbor, Me.). Preoperatively, all mice received 0.05 mg/kg buprenorphine and 0.2 mL of 0.9% saline subcutaneously for pre-surgery analgesia and dehydration prevention. A midline (abdomen) incision (0.5 mm) was made and the peritoneal lining was exposed using blunt dissection. The peritoneal wall was then grasped with forceps and a 0.5-1 mm incision was made along the linea alba. A desired volume of spheres (all materials) were then loaded into a sterile pipette and implanted into the peritoneal cavity. The incision was then closed using 5-0 taper-tipped polydioxanone (PDS II) absorbable sutures, and the skin was closed using a wound clip and VetBond tissue glue. For subcutaneous implantation, ˜200-300 μL of 500 μm SLG20 spheres were injected s.c. following anesthesia with isofluorane. […]

C57BL/6 mice [5] = assay: NanoString expression analysis of mouse cytokines and cytokine receptors; type: in vivo
Description: (§1) For targeted macrophage depletions, clodrosome (200 μL/mouse) (Encapsula Nano Sciences, Nashville, Tenn.) were injected intraperitoneally starting at −3 days (prior to implantation, day 0), and for every 7 days thereafter (so days −3, 4, and 11). To achieve neutrophil depletion, affinity purified anti-Ly6g (Clone 1A8) antibody (250 ug/mouse) (BioLegend, San Diego, Calif.) was administered also starting at day −3, and every 3 days thereafter (except the day of implantation). For the combination therapy, in order to avoid drug-antibody interactions, each agent was administered 4 hours apart from one another. To neutralize secreted CXCL13, anti-CXCL13 antibody (mAB470, R&D Systems) was injected i.p. in sterile 1×PBS at a dose of 100 μg/mouse, once every 3 days, starting 3 days prior to implantation as well. […]
RNAs for mock-implanted (saline) treated controls, or for 500 μm alginate sphere-bearing C57BL/6 mouse strains (n=4/group), including wild type, knockouts, and serially immune depleted wild type mice, were isolated from tissue samples taken at various time points after implantation, as described. […] In general, respective RNAs were quantified, normalized to the appropriate loading concentration (100 ng/μl), and then 500 ng of each sample was processed according to NanoString manufacturer protocols for expression analysis via our customized multiplexed total (known) mouse cytokine and cytokine receptor expression panel, used for both immune strain comparisons with alginate, and material class comparisons just the wild type C57BL/6 strain. […] RNA levels (absolute copy numbers) were obtained following nCounter (NanoString Technologies Inc., Seattle, Wash.) quantification, and group samples were analyzed using nSolver analysis software (NanoString Technologies Inc., Seattle, Wash.).

C57BL/6 mice [6] = assay: FACS analysis of immune cells dissociated from retrieved spheres, tissue and spleen; type: in vivo
Description: For targeted macrophage depletions, clodrosome (200 μL/mouse) (Encapsula Nano Sciences, Nashville, Tenn.) were injected intraperitoneally starting at −3 days (prior to implantation, day 0), and for every 7 days thereafter (so days −3, 4, and 11). To achieve neutrophil depletion, affinity purified anti-Ly6g (Clone 1A8) antibody (250 ug/mouse) (BioLegend, San Diego, Calif.) was administered also starting at day −3, and every 3 days thereafter (except the day of implantation). For the combination therapy, in order to avoid drug-antibody interactions, each agent was administered 4 hours apart from one another. To neutralize secreted CXCL13, anti-CXCL13 antibody (mAB470, R&D Systems) was injected i.p. in sterile 1×PBS at a dose of 100 μg/mouse, once every 3 days, starting 3 days prior to implantation as well. For selective macrophage inhibition and polarization, the CSF1R-targeted inhibitor GW2580 (LC Labs, Woburn, Mass.), was dissolved in a 1:1 DMSO/PEG400 solution, and injected daily (starting 1 day prior to implantation) at a dose of 160 mg/kg BW subcutaneously (s.c.), to eliminate concerns of vehicle directly perturbing responding immune cells as well as a recovering implant site.
Single-cell suspensions of freshly excised tissues were prepared using a gentleMACS Dissociator (Miltenyi Biotec, Auburn, Calif.) according to the manufacturer's protocol. […]

C57BL/6 mice [7] = assay: Peritoneal lavage IP immune cell counts and FACS macrophage phenotype; type: in vivo
Description: Single-cell suspensions of freshly excised tissues were prepared using a gentleMACS Dissociator (Miltenyi Biotec, Auburn, Calif.) according to the manufacturer's protocol. Single-cell suspensions were prepared in a passive PEB dissociation buffer (1×PBS, pH 7.2, 0.5% BSA, and 2 mM EDTA) and suspensions were passed through 70 μm filters (Cat. #22363548, Fisher Scientific, Pittsburgh, Pa.). […] All tissue and material sample-derived, single-cell populations were then subjected to red blood cell lysis with 5 ml of 1×RBC lysis buffer (Cat. #00-4333, eBioscience, San Diego, Calif., USA) for 5 min at 4° C. The reaction was terminated by the addition of 20 ml of sterile 1×PBS. The cells remaining were centrifuged at 300-400g at 4° C. and resuspended in a minimal volume (˜50 μl) of eBioscience Staining Buffer (cat. #00-4222) for antibody incubation. […] For alpha smooth muscle actin (fibrosis) analysis, additional cell aliquots were also fixed in 1% paraformaldehyde and permeabilized with 0.1% triton X-100 before being stained with Cy3-conjugated anti-mouse αSM actin antibody (1:100) (Sigma Aldrich, St. Louis, Mo.). […]

VEGF = VEGF Luminex protein quantification of protein lysates; type: in vivo, C57BL/6 mice; conditions: lysates of alginate spheres and tissue retrieved at 14 days
Description: as §1, with “another.” for “another. To neutralize secreted CXCL13, anti-CXCL13 antibody (mAB470, R&D Systems) was injected i.p. in sterile 1×PBS at a dose of 100 μg/mouse, once every 3 days, starting 3 days prior to implantation as well.”
Cytokine array analysis was performed using the Luminex Bio-Rad Bio-Plex Pro mouse cytokine panel based on Luminex beads (multiplexing both the 23 and 8-cytokine arrays) (Bio-Rad, Hercules, Calif.), according to manufacturer's instructions. 1:4 diluted mouse sera samples were analyzed for the time course, and protein lysates taken from fibrosed tissue and alginate microspheres, loaded at a concentration of 500 μg/mL (200 uL per sample), were run to compare cytokine responses across mock (saline) treated versus wildtype, knockout or serially perturbed/depleted C57BL/6 mice implanted with 500 μm SLG20 alginate spheres. […] The plate was then read on a BioPlex-200 plate reader, with absolute concentrations obtained through fitting a standard curve. […]

[8] = RNA extracts 14 days post-implant, alginate

For COc1ccc(COc2ccc(Cc3cnc(N)nc3N)cc2OC)cc1 [GW2580], the CXCL10 protein level (CXCL10) was “increased reduction of CXCL10 back to wildtype levels”, the ROS activity [1] was “no differences” and the “incision site closure at day 7” value (C57BL/6 mice [2]; 1.5 cm skin incision, daily treatment, day 7, skin stretched apart) was “shut and not pulling apart”. For the same compound, the “scarring at day 14” value (C57BL/6 mice [2]; 1.5 cm skin incision, daily treatment, day 14) was “very little scarring”, the “wound resolution and healing potential by width and depth measurements (histology)” value (C57BL/6 mice [2]; day 14 post-incision, vs vehicle) was “no significant (ns) differences” and the phagocytic activity [3] was “no significant differences”. For the same compound, the “fibrosis on 500 μm alginate spheres” value (C57BL/6 mice [4]; SLG20 alginate 500 μm spheres, 14 day implant, vs wild type/vehicle control) was “prevented the fibrotic response; also recorded: completely eliminated; also recorded: prevents fibrosis”, the “fibrosis on 500 μm glass ceramic spheres” value (C57BL/6 mice [4]; glass spheres, 14 days, vs saline vehicle) was “prevented the fibrotic response; also recorded: prevents fibrosis” and the “fibrosis on 500 μm polystyrene polymer spheres” value (C57BL/6 mice [4]; polystyrene spheres, 14 days, vs saline vehicle) was “prevented the fibrotic response; also recorded: prevents fibrosis”. For the same compound, the “expression of macrophage-associated (downstream) factors (FIG. 13F)” value (C57BL/6 mice [5]; [8]) was “inhibited”, the “expression of macrophage-specific factors (FIG. 13D)” value (C57BL/6 mice [5]; [8]) was “inhibited” and the “expression of non-immune-associated upstream inflammation-associated gene family (FIG. 18B)” value (C57BL/6 mice [5]; alginate-implanted mice, 14 days) was “decreased back to mock implanted (saline) control levels”. The “macrophage, neutrophil and B cell presence on spheres (normalized to cell counts from 100 μl material)” value (C57BL/6 mice [6]; alginate spheres, 14 days post-i.p. implant) was “complete loss”, the “inhibition of host immune attack to alginate, glass and polystyrene spheres” value (C57BL/6 mice [6]; compared with clodrosome-based macrophage depletion, 14 days i.p.) was “as effective as clodrosome-based macrophage depletion” and the “IP macrophage phenotype (CD68 & CD11b staining)” value (C57BL/6 mice [7]; peritoneal lavage after 4 and 14 days of daily treatment, vs vehicle) was “shifted (decreased CD68 & CD11b intensities)”. For the same compound, the “overall cell numbers in the peritoneal exudate” value (C57BL/6 mice [7]; vs untreated and vehicle-treated) was “unchanged” and the VEGF protein production (VEGF) was “spared to normal levels”.
